The target in this assay is T1, GlyT1 (Homo sapiens, UniProt P48067).
T1 construct: expressed in transfected cells
T1 sequence (P48067 1-706): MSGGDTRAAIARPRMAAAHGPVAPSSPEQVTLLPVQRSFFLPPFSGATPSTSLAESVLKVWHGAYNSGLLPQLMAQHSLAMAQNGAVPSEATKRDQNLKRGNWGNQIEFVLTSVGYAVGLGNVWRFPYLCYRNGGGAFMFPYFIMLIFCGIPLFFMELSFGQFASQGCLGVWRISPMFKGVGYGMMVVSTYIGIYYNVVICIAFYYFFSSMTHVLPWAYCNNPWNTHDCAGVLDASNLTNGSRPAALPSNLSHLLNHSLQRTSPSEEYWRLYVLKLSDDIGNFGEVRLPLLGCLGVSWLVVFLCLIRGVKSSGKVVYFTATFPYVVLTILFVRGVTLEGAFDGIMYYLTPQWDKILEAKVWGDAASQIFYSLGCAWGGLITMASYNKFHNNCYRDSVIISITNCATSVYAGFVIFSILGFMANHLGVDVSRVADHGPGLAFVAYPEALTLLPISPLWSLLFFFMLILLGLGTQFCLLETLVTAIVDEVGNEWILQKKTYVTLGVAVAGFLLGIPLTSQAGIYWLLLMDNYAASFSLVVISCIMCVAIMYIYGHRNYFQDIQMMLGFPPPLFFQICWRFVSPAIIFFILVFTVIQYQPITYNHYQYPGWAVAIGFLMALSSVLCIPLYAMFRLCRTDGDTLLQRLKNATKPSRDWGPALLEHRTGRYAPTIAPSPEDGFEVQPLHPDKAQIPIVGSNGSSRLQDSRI
Briefly: Glycine Transporter 1 (GlyT1) uptake assay, scintillation proximity assay of [14C]-glycine uptake. In kind it is cell-based. The following applies: SPA, four parameter logistic fit, read-out: GlyT1 (pIC50) (converted). The gist of the method: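 [14C]-glycine uptake read by scintillation proximity on a plate counter. IC50 from four-parameter logistic fit of dose-response data.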
For orientation: SPA uses beads or plates that emit light when radiolabelled molecules are held near them.
`CS(=O)(=O)c1ccc(-c2cccc(F)c2)c(C(=O)N2Cc3cn(-c4cccnc4)nc3C2)c1` [Example 141, 3-{5-[2-(3-Fluorophenyl)-5-methanesulfonylbenzoyl]-2H 4H 5H 6H-pyrrolo[3,4-c]pyrazol-2-yl}pyridine]: the IC50 was less than 100 nM.
The same measure for `CC(C)Oc1ccc(C#N)cc1C(=O)N1Cc2cn(-c3ccnc(C(C)C)c3)nc2C1` [Example 374, 3-{2-[2-(Propan-2-yl)pyridin-4-yl]-2H 4H 5H 6H-pyrrolo[3,4-c]pyrazole-5-carbonyl}-4-(propan-2-yloxy)benzonitrile]: less than 100 nM; for `CS(=O)(=O)c1ccc(OCC2CC2)c(C(=O)N2Cc3cn(-c4cc(F)ccc4F)nc3C2)c1` [Example 137, 5-[2-(Cyclopropylmethoxy)-5-methanesulfonylbenzoyl]-2-(2 5-difluorophenyl)-2H 4H 5H 6H-pyrrolo[3,4-c]pyrazole]: less than 100 nM; for `C[C@H](Oc1ccc(C#N)c(Cl)c1C(=O)N1Cc2cn(-c3cncc(F)c3)nc2C1)C(F)(F)F` [Example 252, 2-Chloro-3-[2-(5-fluoropyridin-3-yl)-2H 4H 5H 6H-pyrrolo[3,4-c]pyrazole-5-carbonyl]-4-{[(2S)-1 1 1-trifluoropropan-2-yl]oxy}benzonitrile]: less than 100 nM.
The same measure for `Cc1cccc(-n2cc3c(n2)CN(C(=O)c2cc(S(C)(=O)=O)ccc2OCC(F)(F)F)C3)c1` [Example 105, 5-[5-Methanesulfonyl-2-(2 2 2-trifluoroethoxy)benzoyl]-2-(3-methylphenyl)-2H 4H 5H 6H-pyrrolo[3,4-c]pyrazole]: less than 100 nM; for `Cc1cccc(-n2cc3c(n2)CN(C(=O)c2cc(S(C)(=O)=O)ccc2OC(C)C)C3)c1` [Example 85, 5-[5-Methanesulfonyl-2-(propan-2-yloxy)benzoyl]-2-(3-methylphenyl)-2H 4H 5H 6H-pyrrolo[3,4-c]pyrazole]: less than 100 nM.
The same measure for `COc1c(C#N)ccc(O[C@@H](C)C(F)(F)F)c1C(=O)N1Cc2cn(-c3ccc(C)nc3)nc2C1` [Example 266, 2-Methoxy-3-[2-(6-methylpyridin-3-yl)-2H 4H 5H 6H-pyrrolo[3,4-c]pyrazole-5-carbonyl]-4-{[(2S)-1 1 1-trifluoropropan-2-yl]oxy}benzonitrile]: less than 100 nM; for `CCS(=O)(=O)c1ccc(N2CCC(F)(F)CC2)c(C(=O)N2Cc3cn(-c4ccnc(C)c4)nc3C2)c1` [Example 111, 4-{5-[2-(4 4-Difluoropiperidin-1-yl)-5-(ethanesulfonyl)benzoyl]-2H 4H 5H 6H-pyrrolo[3,4-c]pyrazol-2-yl}-2-methylpyridine]: less than 100 nM.
For the compound `CNC(=O)c1ccc(OC(C)C(F)(F)F)c(C(=O)N2CCc3nn(-c4ccc(F)cc4)cc3C2)c1OC` (stereo not shown) [Example 480, 3-[2-(4-Fluorophenyl)-2H 4H 5H 6H 7H-pyrazolo[4,3-c]pyridine-5-carbonyl]-2-methoxy-N-methyl-4-[(1 1 1-trifluoropropan-2-yl)oxy]benzamide], the IC50 was 100 to 1000 nM.
The same measure for `CC1(COc2ccc(S(C)(=O)=O)cc2C(=O)N2Cc3cn(-c4ccc(F)cc4)nc3C2)COC1` [Example 440, 2-(4-Fluorophenyl)-5-{5-methanesulfonyl-2-[(3-methyloxetan-3-yl)methoxy]benzoyl}-2H 4H 5H 6H-pyrrolo[3,4-c]pyrazole]: less than 100 nM; for `CC1(COc2ccc(S(C)(=O)=O)cc2C(=O)N2Cc3cn(-c4cccc(C(F)(F)F)c4F)nc3C2)COC1` [Example 438, 2-[2-Fluoro-3-(trifluoromethyl)phenyl]-5-{5-methanesulfonyl-2-[(3-methyloxetan-3-yl)methoxy]benzoyl}-2H 4H 5H 6H-pyrrolo[3,4-c]pyrazole]: 100 to 1000 nM; for `C[C@H](Oc1ccc(C#N)c(Cl)c1C(=O)N1Cc2cn(-c3ccn(C)n3)nc2C1)C(F)(F)F` [Example 293, 2-Chloro-3-[2-(1-methyl-1H-pyrazol-3-yl)-2H 4H 5H 6H-pyrrolo[3,4-c]pyrazole-5-carbonyl]-4-{[(2S)-1 1 1-trifluoropropan-2-yl]oxy}benzonitrile]: less than 100 nM.
The same measure for `COc1c(C#N)ccc(OC(C)C(F)(F)F)c1C(=O)N1CCc2nn(-c3ccccn3)cc2C1` (stereo not shown) [Example 217, 2-Methoxy-3-[2-(pyridin-2-yl)-2H 4H 5H 6H 7H-pyrazolo[4,3-c]pyridine-5-carbonyl]-4-[(1 1 1-trifluoropropan-2-yl)oxy]benzonitrile]: 100 to 1000 nM; for `Cc1c(F)ccc(-n2cc3c(n2)CN(C(=O)c2cc(S(C)(=O)=O)ccc2OCC(C)(C)C)C3)c1F` [Example 64, 2-(2 4-Difluoro-3-methylphenyl)-5-[2-(2 2-dimethylpropoxy)-5-methanesulfonylbenzoyl]-2H 4H 5H 6H-pyrrolo[3,4-c]pyrazole]: less than 100 nM; for `CC(C)(Oc1ccc(S(C)(=O)=O)cc1C(=O)N1Cc2cn(-c3ccc(F)cc3)nc2C1)C(F)(F)F` [Example 477, 2-(4-Fluorophenyl)-5-{5-methanesulfonyl-2-[(1 1 1-trifluoro-2-methylpropan-2-yl)oxy]benzoyl}-2H 4H 5H 6H-pyrrolo[3,4-c]pyrazole]: greater than 10000 nM.
Under `CCS(=O)(=O)c1ccc(N2CCC(F)(F)CC2)c(C(=O)N2Cc3cn(-c4cc(F)ccc4F)nc3C2)c1` [Example 127, 1-{2-[2-(2 5-Difluorophenyl)-2H 4H 5H 6H-pyrrolo[3,4-c]pyrazole-5-carbonyl]-4-(ethanesulfonyl)phenyl}-4 4-difluoropiperidine] stands less than 100 nM; under `N#Cc1ccc(-c2cccc(F)c2)c(C(=O)N2Cc3cn(C4CCOCC4)nc3C2)c1` [Example 557, 4-(3-Fluorophenyl)-3-[2-(oxan-4-yl)-2H 4H 5H 6H-pyrrolo[3,4-c]pyrazole-5-carbonyl]benzonitrile], 100 to 1000 nM; under `COc1c(C#N)ccc(C2(F)CCOCC2)c1C(=O)N1Cc2cn(-c3ccc(F)cn3)nc2C1` [Example 259, 4-(4-Fluorooxan-4-yl)-3-[2-(5-fluoropyridin-2-yl)-2H 4H 5H 6H-pyrrolo[3,4-c]pyrazole-5-carbonyl]-2-methoxybenzonitrile], 100 to 1000 nM.
With `COc1c(C#N)ccc(OCC(F)(F)F)c1C(=O)N1Cc2cn(-c3ncccc3F)nc2C1` [Example 312, 3-[2-(3-Fluoropyridin-2-yl)-2H 4H 5H 6H-pyrrolo[3,4-c]pyrazole-5-carbonyl]-2-methoxy-4-(2 2 2-trifluoroethoxy)benzonitrile], the IC50 was less than 100 nM.
On to `COc1c(C#N)ccc(OC(C)C(F)(F)F)c1C(=O)N1CCc2nn(-c3ccnc(C)c3)cc2C1` (stereo not shown) [Example 227, 2-Methoxy-3-[2-(2-methylpyridin-4-yl)-2H 4H 5H 6H 7H-pyrazolo[4,3-c]pyridine-5-carbonyl]-4-[(1 1 1-trifluoropropan-2-yl)oxy]benzonitrile], for which the IC50 is less than 100 nM.
The same measure for `CC(Oc1ccc(S(C)(=O)=O)cc1C(=O)N1Cc2cn(-c3ccc(F)cn3)nc2C1)C(F)(F)F` (stereo not shown) [Example 302, 5-Fluoro-2-(5-{5-methanesulfonyl-2-[(1 1 1-trifluoropropan-2-yl)oxy]benzoyl}-2H 4H 5H 6H-pyrrolo[3,4-c]pyrazol-2-yl)pyridine]: less than 100 nM; for `C[C@H](Oc1ccc(C#N)cc1C(=O)N1Cc2cn(-c3ccnc(C#N)c3)nc2C1)C(F)(F)F` [Example 467, 4-[5-(5-Cyano-2-{[(2S)-1 1 1-trifluoropropan-2-yl]oxy}benzoyl)-2H 4H 5H 6H-pyrrolo[3,4-c]pyrazol-2-yl]pyridine-2-carbonitrile]: 100 to 1000 nM; for `COc1ncc(F)cc1-n1cc2c(n1)CN(C(=O)c1c(O[C@@H](C)C(F)(F)F)ccc(C#N)c1Cl)C2` [Example 314, 2-Chloro-3-[2-(5-fluoro-2-methoxypyridin-3-yl)-2H 4H 5H 6H-pyrrolo[3,4-c]pyrazole-5-carbonyl]-4-{[(2S)-1 1 1-trifluoropropan-2-yl]oxy}benzonitrile]: less than 100 nM.
Take `CCC(F)(CC)c1ccc(C#N)c(OC)c1C(=O)N1CCc2nn(-c3ccc(F)cc3)cc2C1` [Example 208]: the IC50 was 1000 to 10000 nM.
The same measure for `CS(=O)(=O)c1ccc(OCC(F)(F)F)c(C(=O)N2Cc3cn(-c4ccccc4)nc3C2)c1` [Example 102, 5-[5-Methanesulfonyl-2-(2 2 2-trifluoroethoxy)benzoyl]-2-phenyl-2H 4H 5H 6H-pyrrolo[3,4-c]pyrazole]: less than 100 nM; for `CC(Oc1ccc(C#N)c(Cl)c1C(=O)N1CCc2c(cnn2C2CCCCC2)C1)C(F)(F)F` (stereo not shown) [Example 214, 2-Chloro-3-{1-cyclohexyl-1H 4H 5H 6H 7H-pyrazolo[4,3-c]pyridine-5-carbonyl}-4-[(1 1 1-trifluoropropan-2-yl)oxy]benzonitrile.]: 100 to 1000 nM.
The same measure for `CS(=O)(=O)c1ccc(N2CCC(F)(F)CC2)c(C(=O)N2Cc3cn(-c4ccc(F)cn4)nc3C2)c1` [Example 120, 2-{5-[2-(4 4-Difluoropiperidin-1-yl)-5-methanesulfonylbenzoyl]-2H 4H 5H 6H-pyrrolo[3,4-c]pyrazol-2-yl}-5-fluoropyridine]: less than 100 nM; for `COc1c(C#N)ccc(O[C@H](C)C(F)(F)F)c1C(=O)N1Cc2cn(-c3cncc(F)c3)nc2C1` [Example 289]: less than 100 nM.
